The values below are quoted from earlier work in patent publication US20200230099A1, “Stable Pharmaceutical Composition Comprising Zanamivir” (Dae Hwa Pharma. Co., Ltd., priority 2017, published 2020).

Like-named read-outs stand apart in the source and are kept apart here.

The conditions of this data set: in vivo.

Take `CC(=O)N[C@H]1[C@H]([C@H](O)[C@H](O)CO)OC(C(=O)O)=C[C@@H]1N=C(N)N` [zanamivir, 5-(acetylamino)-4-[(aminoiminomethyl)amino]-2,6-anhydro-3,4,5-trideoxy-D-glycero-D-galacto-non-2-enonic acid]: the bioavailability result is reported as “about 2%”. Moreover, the bioavailability (inhaled or intranasal) is on record as 4-17%.
